Legend:
Type in all cases: biochemical
Conditions in all cases: 10^-5 M
noradrenaline uptake = noradrenaline uptake in hypothalamus slices
Description: (§1) We have also investigated the effects of HT1001 on noradrenaline, dopamine and 5-hydroxytryptamine reuptake and monamine oxidase A and B activity in vitro. When compared to amphetamine, HT1001 has little effect on noradrenaline or dopamine uptake. For example, at 10^-4 M (assuming a molecular weight of 900 for HT1001) HT1001 inhibits noradrenaline uptake in hypothalamus slices 3.0% whereas amphetamine at 10^-5 M inhibits uptake by 83%. […] None of these effects are dramatic.

dopamine uptake = dopamine uptake in striatal slices
Description: as §1

[1] = system: 5-hydroxytryptamine uptake; assay: 5-hydroxytryptamine uptake in striatal slices
Description: as §1

SMILES: CC(N)Cc1ccccc1 (stereo not drawn) [amphetamine]
- inhibition of noradrenaline uptake (noradrenaline uptake): 83%
- inhibition of dopamine uptake (dopamine uptake): 92.4%
- inhibition of 5-hydroxytryptamine uptake [1]: 94%

— patent publication US6083932A, “Pharmaceutical compositions derived from ginseng and methods of treatment using same” (CV Technologies Inc., priority 1998, dated 2000)
